Reference: ChEMBL document CHEMBL3784927, “Serum azathioprine and 6-mercaptopurine levels and immunosuppressive activity after azathioprine in uremic patients” (Int J Immunopharmacol, 1986)

Legend:
[1] = Cmax in uremic patient (15 patients) at 100 mg, iv by gas chromatography-mass spectrometry with multiple detection method; conditions: human, in vivo
[2] = Tmax in uremic patient (15 patients) at 100 mg, iv by gas chromatography-mass spectrometry with multiple detection method; conditions: human, in vivo
[3] = Primary phase half life in uremic patient (13 patients) at 100 mg, iv by gas chromatography-mass spectrometry with multiple detection method; conditions: human, in vivo
[4] = Terminal phase half life in uremic patient (15 patients) at 100 mg, iv by gas chromatography-mass spectrometry with multiple detection method; conditions: human, in vivo
[5] = AUC (0 to infinity) in uremic patient (15 patients) at 100 mg, iv by gas chromatography-mass spectrometry with multiple detection method; conditions: human, in vivo
[6] = Total clearance in uremic patient (15 patients) at 100 mg, iv by gas chromatography-mass spectrometry with multiple detection method; conditions: human, in vivo
[7] = Volume of distribution in uremic patient (15 patients) at 100 mg, iv by gas chromatography-mass spectrometry with multiple detection method; conditions: human, in vivo
[8] = Cmax in uremic patient (8 patients) at 100 mg, po by gas chromatography-mass spectrometry with multiple detection method; conditions: human, in vivo
[9] = Tmax in uremic patient (8 patients) at 100 mg, po by gas chromatography-mass spectrometry with multiple detection method; conditions: human, in vivo
[10] = AUC (0 to infinity) in uremic patient (7 patients) at 100 mg, po by gas chromatography-mass spectrometry with multiple detection method; conditions: human, in vivo
[11] = Half life in human with good renal function; conditions: in vivo
[12] = Clearance in kidney transplant patient; conditions: human, in vivo

Cmax [1]: 3.14 µM
Tmax [2]: 5 min
half-life [3]: 6.05 min
half-life [4]: 49.5 min
AUC(0-inf) [5]: 1.04 µM·h
clearance [6]: 6920 mL/min
Vd [7]: 438 L
Cmax [8]: 180 nM
Tmax [9]: 15 min
AUC(0-inf) [10]: 0.164 µM·h
half-life [11]: 10 min
clearance [12]: 57 mL/min/kg
SMILES: Cn1cnc([N+](=O)[O-])c1Sc1ncnc2nc[nH]c12 [AZATHIOPRINE]
